Assay results from PubChem BioAssay (NCI).
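Each compound was tested at five concentrations against cells in 96-well plates for 48 hours. TGI is the concentration that stops growth completely.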 Where a SMILES comes first, the peptide text is derived from it.

Legend:
Experiment in all cases: DTP human tumour cell line panel, 48 h
NCI-H460 lung = tested on: NCI-H460 lung
A549 NSCLC = tested on: A549 NSCLC
UACC-257 melanoma = tested on: UACC-257 melanoma
NCI-H522 lung = tested on: NCI-H522 lung
HOP-62 NSCLC = tested on: HOP-62 NSCLC
SR leukemia = tested on: SR leukemia
U251 CNS = tested on: U251 CNS
PC-3 prostate = tested on: PC-3 prostate
NCI-H226 lung = tested on: NCI-H226 lung
NCI/ADR-RES ovarian = tested on: NCI/ADR-RES ovarian
LOX IMVI melanoma = tested on: LOX IMVI melanoma

| SMILES | TGI (NCI-H460 lung) | TGI (A549 NSCLC) | TGI (UACC-257 melanoma) | TGI (NCI-H522 lung) | TGI (HOP-62 NSCLC) | TGI (SR leukemia) | TGI (U251 CNS) | TGI (PC-3 prostate) | TGI (NCI-H226 lung) | TGI (NCI/ADR-RES ovarian) | TGI (LOX IMVI melanoma) |
| --- | --- | --- | --- | --- | --- | --- | --- | --- | --- | --- | --- |
| COc1ccc2c(c1OC)C(=O)N/C2=C\c1c(CCN(C)C)cc2c(c1OC)OCO2 | > 100 µM | > 100 µM | > 100 µM | > 100 µM | > 100 µM | > 100 µM | > 100 µM | > 100 µM | > 100 µM |  |  |
| Cc1cc(S(=O)(=O)NC(=NCCc2ccccc2)NN)c(S)cc1Cl |  | > 100 µM | > 100 µM | > 100 µM |  | > 100 µM | 32.4 µM | > 100 µM | 66.3 µM | 57.8 µM | > 100 µM |
| COC(=O)C(=O)C(/C(=N/N)C(=O)Nc1ccccc1C(N)=O)c1nc2ccc([N+](=O)[O-])cc2[nH]c1=O (stereo not drawn) | > 100 µM | > 100 µM | > 100 µM | > 100 µM | > 100 µM | > 100 µM | > 100 µM |  | > 100 µM |  | > 100 µM |
| CCN(CC)Cc1cc(Nc2ccnc3ccc4nn(C)nc4c23)ccc1O | 22.5 µM | 80 µM | 27.8 µM | 21.6 µM | 36.8 µM | > 100 µM | 45.5 µM |  | 41.7 µM |  | 21.5 µM |
| COc1ccccc1NC(=O)CC(=O)N1N=C(c2ccccc2)C(N=Nc2ccc(Cl)cc2)C1=O (stereo not drawn) | > 100 µM | > 100 µM | > 100 µM | > 100 µM | 48.6 µM | > 100 µM | > 100 µM |  | > 100 µM |  | > 100 µM |
| C#CCOCn1cc(C)c(=O)[nH]c1=O | > 100 µM | > 100 µM | > 100 µM |  | > 100 µM | > 100 µM | > 100 µM | > 100 µM | > 100 µM | > 100 µM | > 100 µM |
| COC(=O)[C@]12CSC[C@H]1C[C@H](c1cccc3ccccc13)N2 | > 100 µM | > 100 µM | > 100 µM |  | > 100 µM | > 100 µM | > 100 µM | > 100 µM | > 100 µM | > 100 µM | > 100 µM |
| O=C(CN=C(CN(c1ccccc1)c1ccccc1)Oc1ccc(Cl)cc1Cl)n1ccnc1 | > 100 µM | > 100 µM | > 100 µM |  | > 100 µM | > 100 µM | > 100 µM | > 100 µM | > 100 µM | > 100 µM | > 100 µM |
| CC1=CC(=O)N(n2c(Cc3ccc(Cl)cc3)n[nH]c2=O)C1=O | > 100 µM | > 100 µM | > 100 µM | 35.7 µM |  | 38.7 µM | > 100 µM | > 100 µM | > 100 µM | > 100 µM | > 100 µM |
| O=S(=O)(c1cc(Cl)ccc1Cl)N1CCN(c2cccc(Cl)c2)CC1 | > 100 µM | > 100 µM | > 100 µM | > 100 µM | > 100 µM | > 100 µM | > 100 µM | > 100 µM | > 100 µM |  | > 100 µM |
| Cc1ccc(C(=O)Oc2ccc(/C=C3\CCC/C(=C\c4ccc(OC(=O)c5ccc(C)cc5)cc4)C3=O)cc2)cc1 | > 100 µM | > 100 µM | > 100 µM | > 100 µM | > 100 µM | > 100 µM | > 100 µM | > 100 µM |  | > 100 µM | > 100 µM |
| CC(C)C(Sc1nc(-c2ccccc2)c(-c2ccccc2)[nH]1)c1n[nH]c(=S)n1-c1ccccc1 (stereo not drawn) | > 100 µM | > 100 µM | 74.9 µM | 43.6 µM | > 100 µM | 92.3 µM | 61.3 µM |  | > 100 µM |  | 35.4 µM |
| Cc1ccccc1Nc1nc(NNC(=O)Cc2ccccc2)nc(NNC(=O)c2ccncc2)n1 | > 10 µM |  | > 10 µM |  | > 10 µM | > 10 µM | > 10 µM |  |  | > 10 µM | > 10 µM |
| CC(C(=O)n1ccnc1)N1c2ccccc2Sc2ccccc21 (stereo not drawn) | > 100 µM | > 100 µM | > 100 µM |  | > 100 µM | > 100 µM | > 100 µM | > 100 µM | > 100 µM | > 100 µM | > 100 µM |
| O=c1[nH]c(=O)n(CCOc2ccc(Cl)cc2)cc1Nc1ccccc1 | > 100 µM | > 100 µM | > 100 µM |  | > 100 µM | > 100 µM | > 100 µM | > 100 µM |  | > 100 µM | > 100 µM |
| O=S(=O)(CCC[C@H]1[C@@H](CCOCc2ccccc2)C2CCCN1O2)c1ccccc1 (stereo partly drawn) | > 100 µM | > 100 µM | > 100 µM | > 100 µM | > 100 µM | > 100 µM | > 100 µM | > 100 µM | > 100 µM | > 100 µM |  |

| SMILES | TGI (NCI-H460 lung) | TGI (A549 NSCLC) | TGI (UACC-257 melanoma) | TGI (NCI-H522 lung) | TGI (HOP-62 NSCLC) | TGI (SR leukemia) | TGI (U251 CNS) | TGI (PC-3 prostate) | TGI (NCI-H226 lung) | TGI (NCI/ADR-RES ovarian) | TGI (LOX IMVI melanoma) |
| --- | --- | --- | --- | --- | --- | --- | --- | --- | --- | --- | --- |
| C[N+]12C=CC=C1C(N1CCCC1)c1scc(-c3ccc(F)cc3)c12 (stereo not drawn) |  | > 100 µM |  | > 100 µM | > 100 µM | 31.9 µM | > 100 µM | > 100 µM | > 100 µM | > 100 µM | > 100 µM |
| COC(=O)Cn1c(=O)oc2nc(-c3ccccc3)cc(C(F)(F)F)c21 | > 100 µM | > 100 µM | > 100 µM | > 100 µM | > 100 µM | > 100 µM | > 100 µM | > 100 µM | > 100 µM | > 100 µM |  |
| CCOC(=O)c1sc2nc1CSc1sc(=S)sc1SCc1nc(sc1C(=O)OCC)-c1nc(c(C(=O)OCC)s1)CSc1sc(=S)sc1SCc1nc-2sc1C(=O)OCC | > 10 µM | > 10 µM | > 10 µM | > 10 µM | > 10 µM | > 10 µM | > 10 µM | > 10 µM |  | > 10 µM | > 10 µM |
| CCC(C)C(NC(=O)C(CC(C)C)NC(=O)CNC(=O)C(NC(=O)C1CCCN1C(=O)C(CC(C)C)NC(=O)C(N)Cc1ccccc1)C(C)CC)C(=O)NC(CC(C)C)C(N)=O (stereo not drawn) (H-FLPIGLIL-NH2; configuration not given here) |  | > 75 µM | > 75 µM | > 75 µM | > 75 µM | > 75 µM | > 75 µM | > 75 µM | > 75 µM | > 75 µM | > 75 µM |
| CC(=O)Nc1cc2nc3n(c2cc1C)CCC3OC(C)=O (stereo not drawn) | > 100 µM | > 100 µM | > 100 µM | > 100 µM |  | > 100 µM | > 100 µM | > 100 µM | > 100 µM | > 100 µM | > 100 µM |
| C(#CC1(Nc2ccccc2)CCN(Cc2ccccc2)CC1)C1(Nc2ccccc2)CCN(Cc2ccccc2)CC1 | > 46.4 µM | > 56.2 µM |  | > 56.2 µM | 40.7 µM | > 24.8 µM | 43.6 µM | 36.5 µM | > 56.2 µM | > 100 µM | 38.7 µM |
| CCCCCCCCCCOCCOCCOCCOCCCCC(O)CCCCCCCC1=C[C@H](C)OC1=O (stereo partly drawn) | 22 µM | 29.9 µM | 19.8 µM | 21.1 µM |  | 19.6 µM | 23.5 µM | 20.9 µM | 23.4 µM | 41 µM | 28 µM |
| CC1=N[C@@](C)(C2CC3C=CC2C3=O)COC1=O (stereo partly drawn) | > 100 µM | > 100 µM | > 100 µM | > 100 µM | > 100 µM | > 100 µM | > 100 µM | > 100 µM | > 100 µM |  |  |
| O=C1C=C(c2ccccc2)O/C1=C\C(=O)c1ccc(Cl)cc1 | > 100 µM |  | 37.1 µM | 44.2 µM | > 100 µM | > 100 µM | 29.9 µM | 30.3 µM | 44.5 µM | 52.4 µM | 30.1 µM |
| COc1cc(C2OC[C@@H]3C(=O)OC[C@H]23)cc(O)c1OC (stereo partly drawn) | > 100 µM | > 100 µM | > 100 µM | > 100 µM |  | > 100 µM | > 100 µM | > 100 µM | > 100 µM | > 100 µM | > 100 µM |
| CCOC(=O)C(NC(=O)CC)(Nc1ccc(F)cc1F)C(F)(F)F (stereo not drawn) |  | > 100 µM | > 100 µM |  |  | > 100 µM | > 100 µM | > 100 µM |  | > 100 µM | > 100 µM |
| Cc1nc2c3c(ccc2[nH]c1=O)C(=O)c1ccccc1C3=O | > 100 µM | > 100 µM | > 100 µM | > 100 µM | > 100 µM | > 100 µM | > 100 µM |  | > 100 µM |  | > 100 µM |
| CCOC(=O)N/N=C(\CC)OCC | > 100 µM | > 100 µM | > 100 µM | > 100 µM | > 100 µM | > 100 µM |  | > 100 µM |  | > 100 µM | > 100 µM |
| CCCCC1(O)CC2CC1C(C)C2(C)C (stereo not drawn) |  | > 100 µM | > 100 µM |  | > 100 µM | > 100 µM | > 100 µM | > 100 µM | > 100 µM | > 100 µM | > 100 µM |
| CN1CCN(Cc2nc3c(s2)CCc2sccc2-3)CC1 | > 100 µM | > 100 µM | > 100 µM | > 100 µM | > 100 µM | 99.7 µM | > 100 µM | > 100 µM | > 100 µM | > 100 µM |  |
| C/C(=N/O)c1sc(-c2nc(C)c(/C(C)=N\O)s2)nc1C |  | > 100 µM | > 100 µM |  |  | > 100 µM | > 100 µM |  | > 100 µM |  | > 100 µM |
